Measurements from US20180092908A1, “SMALL MOLECULE OXIDIZERS OF PDI AND THEIR USE” (THE TRUSTEES OF COLUMBIA UNIVERSITY IN THE CITY OF NEW YORK, priority 2015, published 2018).
Where two headings read alike, the source gives them in different places.

Assays:
[1] = molecular target: T1, human catalytic PDI A1 a domain (PDIa) (Homo sapiens, UniProt P07237); assay: Isothermal titration calorimetry (ITC) binding to PDIa
T1 construct: made in house; host or cells: Escherichia coli BL21-Gold (DE3)
Protocol: All ITC experiments were carried out at 25° C. on MicoCal Auto-ITC200 system (GE Healthcare). Reduced PDIa was dialyzed into ITC buffer (20 mM sodium phosphate buffer pH 7.8) and loaded into a sample cell at 40 μM concentration. The compound solution was loaded into a syringe at 400 μM in the same ITC buffer with a final DMSO concentration at 0.4% (v/v). ITC titration experiments were carried out at 25° C. with 19 injections, 2 μl per injection, and 180 seconds between each injection. The reference cell power was set to 5 μcal/sec. A control experiment was performed for each compound, where each compound was titrated into buffer to account for heat released due to dilution. This background was subtracted from test data before a final dissociation constant was obtained. Data were analyzed using a one-site binding model in Origin 7.1 software. […] Gibbs free energy, ΔG, was calculated from equation ΔG=ΔH−TΔS. All other parameters, Ka, n, ΔH, ΔS, were determined directly from the titration data.
For ITC experiments with 16F16 pre-treatment, 40 μM PDIa (after dialysis into ITC buffer) was treated with 200 μM 16F16 for 12-15 hours at 4° C. Next day the whole solution was loaded into the sample cell. LOC14 at 400 μM in ITC buffer was loaded into syringe and titrated into PDIa+16F16 loaded cell. For control experiments, ITC buffer with 200 μM 16F16 was used in the cell, while 400 μM LOC14 in ITC buffer was used in the syringe.
The binding mode of LOC14 to PDIa was next investigated using isothermal titration calorimetry (ITC). ITC measures the heat released or absorbed during a biomolecular interaction. It is a direct analytical method for determining the binding and thermodynamic parameters, such as reaction stoichiometry (n), binding constants (Ka and Kd), enthalpy (ΔH), entropy (ΔS), and free energy (ΔG) of an interaction.

PC12 mHTT^Q103 cells = assay: Rescue of PC12 cells from mHTT^Q103 induced cell death (Alamar blue viability); type: cell-based; settings: Rattus norvegicus, PC-12; Table 5; read-out: Cell Viability Assay EC50
Text: PC12 mHTT^Q103 cells were a gift from Erik S. Schweitzer (UCLA School of Medicine, Los Angeles, Calif.). These cells are stably transfected with the first exon of human HTT gene containing the pathogenic 103 CAG/CAA repeat expansion, under the control of the ecdysteroid promoter (Aiken et al., 2004). The plasmid also contains a Bombyx mori ecdysone receptor gene fused at N-terminal with VP16 transactivation domain (Suhr et al., 1998; Vilaboa et al., 2011). Addition of the ecdysone analog, tebufenozide, to the cell culture medium is used to initiate the transcription of mutant HTT (Aiken et al., 2004).
PC12 mHTT^Q103 cells were cultured in DMEM containing 4.5 g/I glucose, 25 mM HEPES, sodium pyruvate, and no L-glutamine (Mediatech, cat. no. 15-018-CV), supplemented with 10% (v/v) Cosmic Calf serum, 2 mM L-glutamine, 100 units/mL of penicillin-streptomycin, and 0.5 mg/ml active geneticin. Cells were grown at 37° C., 9.5% CO2, and the medium was replaced with fresh medium every 2-3 days. To induce mHTT^Q103 expression for experiments, tebufenozide, a gift from Lynne Moore and Fred H. Gage (The Salk Institute for Biological Studies, La Jolla, Calif.), was added to the medium at 200 nM final concentration from 1 mM stock in 85% ethanol.
LOC mother plates with compounds at 4 mg/ml were thawed and spun down (1000 rpm, 20° C., 1 min) prior to use. Biomek FX (Beckman Coulter) robotic liquid dispenser was used to handle all liquid transferring and mixing. […] Two fold serial dilution was performed across five daughter plates by transferring 50 μl of compounds (at […]) from the D1 plate into 50 μl of PC12 medium in daughter plate D2, mixing, and then repeating the process for the remaining three plates. Daughter plate D1 with compounds at […], daughter plate D3 with compounds at 20 μl/ml and daughter plate D5 with compounds at 5 μl/ml were then used for the screen. Assay plates were set up by seeding tebufenozide-induced PC12 mHTT^Q103 cells into 384-well black, clear-bottom plates (Corning Inc. cat. no. 3712) at a density of 7,500 cells per well in 57 μl PC12 medium without geneticin. Three microliters of compound from the daughter plates (D1, D3, and D5) were added to the assay plates for a final compound concentration of 4 μl/ml, 1 μl/ml, and 0.25 μl/ml. Four wells containing uninduced PC12 mHTT^Q103 cells and four wells containing medium only, were also included on each plate as controls. The assay plates were incubated at 37° C., 9.5% CO2 for 48 hours. Twenty microliters of 40% Alamar blue (Life Technologies cat. no. DAL1100) solution in PC12 medium was added to each well (1:10 final dilution) and the plates were incubated for an additional 12-24 hours at 37° C., 9.5% CO2. Alamar blue fluorescence was read on a fluorescence plate reader (PerkinElmer Victor3) with 530 nm excitation filter and 590 nm emission filter. Each compound concentration was tested in triplicate.
The follow-up testing of primary screen hits was performed in a similar way. Fresh powder stocks of primary hits were re-ordered from vendors, dissolved in DMSO and tested in a two-fold serial dilution across 10 wells in both tebufenozide-induced and uninduced PC12 mHTT^Q103 cells. Dose-response curves were plotted as mean±SD and fit to either four-parameter sigmoidal (for uninduced cells) or bell-shaped (induced) function using Prism (GraphPad Software).
A cascade of two assays was used, involving both a phenotypic high-throughput screening (HTS) assay and an in vitro PDI reductase assay, to identify neuroprotective PDI-inhibiting compounds. […] Alamar blue was used as a fluorescent readout for viability after 48 hours of compound treatment and mHTT^Q103 induction. […] All the candidate hit compounds were re-tested in a two-fold dilution series.

[2] = molecular target: T2, recombinant catalytic a domain of human PDI A1 (PDIa) (Homo sapiens, UniProt P07237); assay: Insulin aggregation assay (PDIa reductase activity); type: biochemical; settings: Table 5
T2 construct: made in house; host or cells: Escherichia coli BL21-Gold (DE3)
T2 sequence (P07237 with tags, fused parts or gaps): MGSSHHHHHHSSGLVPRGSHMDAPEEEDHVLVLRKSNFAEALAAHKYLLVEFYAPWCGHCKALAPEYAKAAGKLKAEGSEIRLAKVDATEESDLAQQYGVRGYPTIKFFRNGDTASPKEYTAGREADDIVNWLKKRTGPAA
Text: In this insulin aggregation assay (Xu et al., 2012; Jasuja et al., 2012; Khan et al., 2011; Smith et al., 2004), PDIa reduced the two disulfide bonds between the α- and β-chains of insulin, causing the β-chain to aggregate and precipitate, resulting in an increase in absorbance at 650 nm.
To investigate the mode of binding further and to determine whether the binding was reversible or irreversible, the recovery of enzymatic activity of PDIa after dilution of pre-formed concentrated PDIa-LOC14 complexes was analyzed. LOC14 (750 μM) was incubated with a concentrated solution of PDIa (500 μM). The mixture was then diluted 100-fold and PDI's enzymatic activity was measured in the insulin reduction assay. As a control, the same procedure was also performed on the sample containing an irreversible inhibitor, 16F16 (16F16 at 750 μM and PDIa at 500 μM). […] This illustrated that unlike 16F16, LOC14 binding to PDIa is reversible.

[3] = PDIa, Table 5, read-out: ITC Assay KD

T1 sequence (P07237 with tags, fused parts or gaps): as above

Structure (SMILES)	Insulin Assay (either active or inactive) [2]	ITC Assay KD ([1]; PDIa, Table 5)	EC50 (PC12 mHTT^Q103 cells)	also measured
O=c1[nH]sc2ccccc12 [BIT fragment, 1,2,Benzisothiazol-3-one]	–	–	–	Kd ([1]; PDIa, Table 4, read-out: ITC KD): 142 nM
O=C(c1ccccc1)n1sc2ccccc2c1=O [LC-11]	not active	KD = N/A irreversible or not	> 50000 nM	–
O=C(NCc1ccc(Br)cc1)c1ccccc1S [LC-20]	not active t	KD = N/A irreversible or not active	> 50000 nM	–
O=C(Nc1ccc(N2CCOCC2)cc1)c1ccccc1S [LC-21]	not active	KD = N/A irreversible or not active	696 nM	–
O=c1c2ccccc2sn1CN1CCN(Cc2ccccc2)CC1 [LC-22]	Active	–	310 nM	Kd [1, 3]: 173 nM
O=C(Nc1ccc(Cc2ccccc2)cc1)c1ccccc1S [LC-23]	not active	KD = N/A irreversible or not active	3880 nM	–
O=c1c2ccccc2sn1-c1ccc(Cc2ccccc2)cc1 [LC-25]	not active	KD = N/A irreversible or not active	1590 nM	–
O=c1c2ccccc2sn1Cc1ccc(Br)cc1 [LC-26]	not active	KD = N/A irreversible or not active	778 nM	–
C[C@@H](NC(=O)c1ccccc1S)c1ccccc1 [LC-28]	not active	KD = N/A irreversible or not active	808 nM	–
C[C@H](c1ccccc1)n1sc2ccccc2c1=O [LC-29]	Active	–	519 nM	Kd [1, 3]: 658 nM
O=C(Nc1cccc(F)c1)c1ccccc1S [LC-30]	not active	KD = N/A irreversible or not active	2990 nM	–
O=c1c2ccccc2sn1-c1cccc(F)c1 [LC-31]	not active	KD = N/A irreversible or not	1760 nM	–
O=C(Nc1ccc(Oc2ccccc2)cc1)c1ccccc1S [LC-33]	not active	KD = N/A irreversible or not active	2940 nM	–
O=c1[nH]sc2c(C(F)(F)F)cccc12 [LC-41]	not active	KD = N/A irreversible or not active	–	–
O=C(C1CC1)N1CCN(Cn2sc3c(C(F)(F)F)cccc3c2=O)CC1 [LC-42]	not active	KD = N/A irreversible or not active	–	–
NC(=O)c1cccc(C(F)(F)F)c1SSc1c(C(N)=O)cccc1C(F)(F)F [LC-45]	not active	KD = N/A irreversible or not active	–	–
O=c1ssc2ccccc12 [LC-48]	not active	–	–	–
O=c1c2cccnc2sn1CCN1CCOCC1 [LC-55]	Active	–	–	–
Cc1nnc2s[nH]c(=O)c2c1C [LC-57]	Active	–	12200 nM	–
C[C@H](c1ccccc1)n1sc2ncccc2c1=O [LC-58]	Active	–	–	–
O=C(C1CC1)N1CCN(Cn2oc3ccccc3c2=O)CC1 [Oxy-LOC14, 2-((4-(cyclopropanecarbonyl)piperazin-1-yl)methyl)benzo[d]isoxazol-3(2H)-one]	–	–	–	loss in binding affinity compared to LOC14 ([1]; ITC, PDIa): 35 fold; Kd ([1]; reduced PDIa 40 μM, compound 400 μM, 25° C., read-out: dissociation constant (Kd)): 2430 nM

Further lines, with some results ahead:

Insulin Assay (either active or inactive) [2]	ITC Assay KD ([1]; PDIa, Table 5)	Structure (SMILES)	EC50 (PC12 mHTT^Q103 cells)	also measured
Active	–	O=c1c2ccccc2sn1CN1CCOCC1 [LC-18]	547 nM	Kd [1, 3]: 253 nM
Active	–	COCCn1sc2ccccc2c1=O [LC-32]	700 nM	Kd [1, 3]: 158 nM
not active	KD = N/A irreversible or not active	O=c1[nH]sc2c(Cl)cccc12 [LC-38]	–	–
not active	KD = N/A irreversible or not active	O=C(C1CC1)N1CCN(Cn2sc3c(Cl)cccc3c2=O)CC1 [LC-39]	–	–
not active	–	S=c1ssc2ccccc12 [LC-49]	–	–
Active	–	O=c1c2cccnc2sn1CCN1CCCCC1 [LC-54]	–	–
Active	–	O=c1c2cccnc2sn1CCC1CCNCC1 [LC-56]	–	–
